The assay relates to HCT116 colorectal cancer cells. As to the kind of experiment: Cisplatin sensitization assay (96 h cell viability MTS).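 Note: Test-compound concentration that lowers the Cisplatin IC50 by a set fold.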 The format is cell-based. The note with it: compound and Cisplatin added simultaneously, Cisplatin sensitization value. Summed up: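 Compound and cisplatin added together as a full matrix of 2-fold serial dilutions from a top final concentration of 10 μM; cells incubated 96 h at 37° C, 5% CO2. Viability then read by MTS after 1 h further incubation; sensitization value reported in μM bins.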
For `Nc1nn2cc(F)cnc2c1C(=O)Nc1cncc(F)c1N1CCC(N2CCCC2=O)CC1` [I-N-147, 2-amino-6-fluoro-N-(5-fluoro-4-(4-(2-oxopyrrolidin-1-yl)piperidin-1-yl)pyridin-3-yl)pyrazolo[1,5-a]pyrimidine-3-carboxamide], the “Cisplatin Sensitization Assay” value is on record as “+++ (Cisplatin sensitization value of <0.02 μM)”.
The value for `CN1CCC(N(C)S(=O)(=O)C2CCN(c3c(F)cncc3NC(=O)c3c(N)nn4cc(F)cnc34)CC2)CC1` [I-N-148, 2-amino-6-fluoro-N-(5-fluoro-4-(4-(N-methyl-N-(1-methylpiperidin-4-yl)sulfamoyl)piperidin-1-yl)pyridin-3-yl)pyrazolo[1,5-a]pyrimidine-3-carboxamide] was “+++ (Cisplatin sensitization value of <0.02 μM)”; that for `Nc1nn2cc(F)cnc2c1C(=O)Nc1cncc(F)c1N1CCC(CN2CCOCC2)CC1` [I-N-149, 2-amino-6-fluoro-N-(5-fluoro-4-(4-(morpholinomethyl)piperidin-1-yl)pyridin-3-yl)pyrazolo[1,5-a]pyrimidine-3-carboxamide] was “+++ (Cisplatin sensitization value of <0.02 μM)”.
The value for `CN1CCN(CC2CCN(c3c(F)cncc3NC(=O)c3c(N)nn4cc(F)cnc34)CC2)CC1` [I-N-150, 2-amino-6-fluoro-N-(5-fluoro-4-(4-((4-methylpiperazin-1-yl)methyl)piperidin-1-yl)pyridin-3-yl)pyrazolo[1,5-a]pyrimidine-3-carboxamide] was “+++ (Cisplatin sensitization value of <0.02 μM)”; that for `CN1CCN(C2CCN(c3c(F)cncc3NC(=O)c3c(N)nn4cc(F)cnc34)CC2)C(=O)C1` [I-N-151, 2-amino-6-fluoro-N-(5-fluoro-4-(4-(4-methyl-2-oxopiperazin-1-yl)piperidin-1-yl)pyridin-3-yl)pyrazolo[1,5-a]pyrimidine-3-carboxamide] was “+ (Cisplatin sensitization value>0.2 μM but <5 μM)”.
Regarding `Nc1nn2cc(F)cnc2c1C(=O)Nc1cnccc1N1CCCCC1` [I-N-152, 2-amino-6-fluoro-N-(4-(piperidin-1-yl)pyridin-3-yl)pyrazolo[1,5-a]pyrimidine-3-carboxamide], the “Cisplatin Sensitization Assay” value is given as “+++ (Cisplatin sensitization value of <0.02 μM)”.
Regarding `CN(C)CC(=O)N1CCN(c2c(F)cncc2NC(=O)c2c(N)nn3cc(F)cnc23)CC1` [I-N-153, 2-amino-N-(4-(4-(2-(dimethylamino)acetyl)piperazin-1-yl)-5-fluoropyridin-3-yl)-6-fluoropyrazolo[1,5-a]pyrimidine-3-carboxamide], the “Cisplatin Sensitization Assay” value is listed as “++ (Cisplatin sensitization value>0.02 μM but <0.2 μM)”.
On to `CN1CCC(OC2CCN(c3ccncc3NC(=O)c3c(N)nn4cc(F)cnc34)CC2)CC1` [I-N-154, 2-amino-6-fluoro-N-(4-(4-((1-methylpiperidin-4-yl)oxy)piperidin-1-yl)pyridin-3-yl)pyrazolo[1,5-a]pyrimidine-3-carboxamide], for which the “Cisplatin Sensitization Assay” value is given as “+++ (Cisplatin sensitization value of <0.02 μM)”.
The entry for `Nc1nn2cc(F)cnc2c1C(=O)Nc1cncc(F)c1N1CCC(S(=O)(=O)N2CCOCC2)CC1` [I-N-155, 2-amino-6-fluoro-N-(5-fluoro-4-(4-(morpholinosulfonyl)piperidin-1-yl)pyridin-3-yl)pyrazolo[1,5-a]pyrimidine-3-carboxamide] is “+++ (Cisplatin sensitization value of <0.02 μM)”; for `CN1CCC(C(=O)N2CCN(c3c(F)cncc3NC(=O)c3c(N)nn4cc(F)cnc34)CC2)C1` (stereo not shown) [I-N-156, 2-amino-6-fluoro-N-(5-fluoro-4-(4-(1-methylpyrrolidine-3-carbonyl)piperazin-1-yl)pyridin-3-yl)pyrazolo[1,5-a]pyrimidine-3-carboxamide] it is “+++ (Cisplatin sensitization value of <0.02 μM)”.
On to `CN1CCC[C@H]1C(=O)N1CCN(c2c(F)cncc2NC(=O)c2c(N)nn3cc(F)cnc23)CC1` [I-N-157, (S)-2-amino-6-fluoro-N-(5-fluoro-4-(4-(1-methylpyrrolidine-2-carbonyl)piperazin-1-yl)pyridin-3-yl)pyrazolo[1,5-a]pyrimidine-3-carboxamide], for which the “Cisplatin Sensitization Assay” value is on record as “++ (Cisplatin sensitization value>0.02 μM but <0.2 μM)”.
The value for `Nc1nn2cc(F)cnc2c1C(=O)Nc1cncc(F)c1N1CCN(S(=O)(=O)C2CCOCC2)CC1` [I-N-158, 2-amino-6-fluoro-N-(5-fluoro-4-(4-((tetrahydro-2H-pyran-4-yl)sulfonyl)piperazin-1-yl)pyridin-3-yl)pyrazolo[1,5-a]pyrimidine-3-carboxamide] was “+++ (Cisplatin sensitization value of <0.02 μM)”; that for `Nc1nn2cc(F)cnc2c1C(=O)Nc1cncc(F)c1N1CCN(S(=O)(=O)C2CC2)CC1` [I-N-159, 2-amino-N-(4-(4-(cyclopropylsulfonyl)piperazin-1-yl)-5-fluoropyridin-3-yl)-6-fluoropyrazolo[1,5-a]pyrimidine-3-carboxamide] was “+++ (Cisplatin sensitization value of <0.02 μM)”; that for `Nc1nn2cc(F)cnc2c1C(=O)Nc1cncc(F)c1N1CCN(C(=O)CN2CCC2)CC1` [I-N-160, 2-amino-N-(4-(4-(2-(azetidin-1-yl)acetyl)piperazin-1-yl)-5-fluoropyridin-3-yl)-6-fluoropyrazolo[1,5-a]pyrimidine-3-carboxamide] was “+++ (Cisplatin sensitization value of <0.02 μM)”.
Turning to `Cc1ncn(-c2ccncc2NC(=O)c2c(N)nn3cc(F)cnc23)n1` [I-N-161, 2-amino-6-fluoro-N-(4-(3-methyl-1H-1,2,4-triazol-1-yl)pyridin-3-yl)pyrazolo[1,5-a]pyrimidine-3-carboxamide], the “Cisplatin Sensitization Assay” value is recorded as “+ (Cisplatin sensitization value>0.2 μM but <5 μM)”.
The entry for `Cc1ncnn1-c1ccncc1NC(=O)c1c(N)nn2cc(F)cnc12` [I-N-162, 2-amino-6-fluoro-N-(4-(5-methyl-1H-1,2,4-triazol-1-yl)pyridin-3-yl)pyrazolo[1,5-a]pyrimidine-3-carboxamide] is “++ (Cisplatin sensitization value>0.02 μM but <0.2 μM)”; for `Nc1nn2cc(F)cnc2c1C(=O)Nc1cncc(F)c1N1CCN2C(=O)CCC2C1` (stereo not shown) [I-N-163, 2-amino-6-fluoro-N-(5-fluoro-4-(6-oxohexahydropyrrolo[1,2-a]pyrazin-2(1H)-yl)pyridin-3-yl)pyrazolo[1,5-a]pyrimidine-3-carboxamide] it is “+++ (Cisplatin sensitization value of <0.02 μM)”.
The entry for `CN1CC(OC2CCN(c3ccncc3NC(=O)c3c(N)nn4cc(F)cnc34)CC2)C1` [I-N-164, 2-amino-6-fluoro-N-(4-(4-((1-methylazetidin-3-yl)oxy)piperidin-1-yl)pyridin-3-yl)pyrazolo[1,5-a]pyrimidine-3-carboxamide] is “+++ (Cisplatin sensitization value of <0.02 μM)”; for `CS(=O)(=O)C1CCN(c2c(F)cncc2NC(=O)c2c(N)nn3cc(F)cnc23)CC1` [I-N-165, 2-amino-6-fluoro-N-(5-fluoro-4-(4-(methylsulfonyl)piperidin-1-yl)pyridin-3-yl)pyrazolo[1,5-a]pyrimidine-3-carboxamide] it is “+++ (Cisplatin sensitization value of <0.02 μM)”.

(Values after patent US11370798B2 (Vertex Pharmaceuticals Incorporated, priority 2012, dated 2022).)
